Assay [1] has as its target T1, Apoptotic protease-activating factor 1 (Homo sapiens, UniProt O14727).
T1 sequence (O14727 whole entry): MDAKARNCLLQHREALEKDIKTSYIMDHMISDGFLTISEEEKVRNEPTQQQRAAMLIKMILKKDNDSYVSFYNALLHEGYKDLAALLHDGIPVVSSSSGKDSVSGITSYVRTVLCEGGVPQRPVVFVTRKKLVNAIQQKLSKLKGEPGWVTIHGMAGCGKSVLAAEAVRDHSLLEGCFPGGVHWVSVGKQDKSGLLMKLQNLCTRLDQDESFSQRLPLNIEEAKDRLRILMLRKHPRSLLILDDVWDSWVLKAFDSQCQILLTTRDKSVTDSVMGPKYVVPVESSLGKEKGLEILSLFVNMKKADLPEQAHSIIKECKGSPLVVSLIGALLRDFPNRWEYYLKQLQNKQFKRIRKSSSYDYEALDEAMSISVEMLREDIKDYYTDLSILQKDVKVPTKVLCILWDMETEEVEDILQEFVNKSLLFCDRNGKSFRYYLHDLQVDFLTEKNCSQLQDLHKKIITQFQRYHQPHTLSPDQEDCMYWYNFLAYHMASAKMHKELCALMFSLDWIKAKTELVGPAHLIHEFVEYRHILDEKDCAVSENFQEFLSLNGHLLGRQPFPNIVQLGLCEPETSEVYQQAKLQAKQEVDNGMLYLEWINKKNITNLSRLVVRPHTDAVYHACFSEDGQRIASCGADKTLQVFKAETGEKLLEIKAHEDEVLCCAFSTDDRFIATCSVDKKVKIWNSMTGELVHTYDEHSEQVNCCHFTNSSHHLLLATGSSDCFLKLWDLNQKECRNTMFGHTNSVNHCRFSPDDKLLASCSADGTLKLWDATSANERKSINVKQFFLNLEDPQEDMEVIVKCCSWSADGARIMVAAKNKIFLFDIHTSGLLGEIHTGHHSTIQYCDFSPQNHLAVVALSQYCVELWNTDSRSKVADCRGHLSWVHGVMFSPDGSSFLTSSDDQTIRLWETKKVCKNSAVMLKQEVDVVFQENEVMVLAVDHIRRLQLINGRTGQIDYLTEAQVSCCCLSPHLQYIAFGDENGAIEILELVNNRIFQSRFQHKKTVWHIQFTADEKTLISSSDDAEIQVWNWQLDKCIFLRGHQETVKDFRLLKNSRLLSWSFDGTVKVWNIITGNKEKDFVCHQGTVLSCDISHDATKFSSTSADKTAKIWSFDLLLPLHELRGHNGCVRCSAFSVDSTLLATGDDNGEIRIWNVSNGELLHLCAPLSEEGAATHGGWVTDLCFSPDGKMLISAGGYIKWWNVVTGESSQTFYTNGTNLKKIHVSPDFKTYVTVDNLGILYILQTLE
It counts as functional.

Assay [2] has as its target Tyrosyl-DNA phosphodiesterase 2 (Homo sapiens, UniProt O95551). Description: potency against TDP2 phosphodiesterase activity – biochemical, epi absorbance, IC50, dose response (AID 743297).
For a further assay, the target named is Major prion protein (Homo sapiens, UniProt P04156). It counts as functional, cell-based.
Assay [3] in a line: rise of 2N DNA cells, HeLa – IC50, dose response (AID 1117349). It is filed as functional, cell-based.
Assay [4] is described as follows: CellTiter-Glo luminescence survival assay, SW480 colon tumor line, concentration-response curve, half-maximal inhibitory concentration (AID 1117338). It is filed as functional. On the technique in general: In ATP-based viability assays light output follows the ATP content of the culture.
Assay [5] can be described thus: RKO cell viability reduction, dose response, CellTiter-Glo luminescence (AID 1117322). It is filed as functional.
Assay [6] in a line: cytotoxicity toward HCT116 cells – cell-based, CellTiter-Glo luminescence, IC50, dose response (AID 1117332). It is filed as functional. The note with it: HCT-116.
A short description of assay [7]: SNU-C1 cell viability reduction, dose response, CellTiter-Glo luminescence (AID 1117323). It is filed as functional, cell-based.
Assay [8] in a line: cytotoxicity toward Colo320 cells – cell-based, CellTiter-Glo luminescence, IC50, dose response (AID 1117334). It is filed as functional. The following applies: COLO 320.
A short description of assay [9]: rise of 4N DNA cells, HeLa – IC50, dose response (AID 1117351). It counts as functional, cell-based.
Assay [10] can be described thus: cytotoxicity toward HT-29 cells – cell-based, CellTiter-Glo luminescence, IC50, dose response (AID 1117330). It is filed as functional.
Assay [11] in a line: Reduced DLD-1 viability, concentration-response, CellTiter-Glo luminescence (AID 1117352). It is filed as functional.
A short description of assay [12]: HCT116 cell viability decrease, GSK3B pretreatment – CellTiter-Glo, IC50, dose response (AID 1117339). It is filed as functional. The note with it: HCT-116.
The target in another assay is Kallikrein-7 (Homo sapiens, UniProt P49862). Description: Fluorescence Intensity-based biochemical primary high throughput dose response assay to identify activators of kallikrein-7 (K7) zymogen.
A short description of assay [13]: microbe, parasite or virus in culture. It is filed as functional. The following applies: Mycobacterium tuberculosis.
The nature of assay [14]: viability loss in THP-1 monocytes – THP-1 cells, cytotoxicity control for Vif-APOBEC3G degradation inhibitor project, dose response (AID 1117359). It is filed as functional. The note with it: THP-1.
Assay [15] in a line: growth inhibition of yeast DHODH-expressing 3D7 parasites – SYBR Green, dry powder samples, dose response (AID 1159570).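 Also: parasite growth measured after 72 hours of compound exposure.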 It is filed as functional, cell-based.
A short description of assay [16]: toxicity to human HepG2 hepatoma cells – cell-based, plate reader, dry powder samples, cytotoxicity control, dose response (AID 1159569).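 Also: inhibitor potency with signal falling toward the positive control level.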 It is filed as functional.
The nature of assay [17]: P. falciparum Dd2 growth inhibitors, dose response, SYBR Green, cherry-picked samples (AID 1159567). It is filed as functional, cell-based.
A short description of assay [18]: Dd2 malaria parasite growth inhibition potency – SYBR Green, dry powder samples, dose response (AID 1159566).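 Also: potency for growth inhibition with lower SYBR green DNA signal.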 It is filed as functional, cell-based.
Assay [19] in a line: toxicity to human hepatoma HepG2 cells – cell-based, cherry-picked samples, cytotoxicity control, dose response (AID 1159577). It is filed as functional.
A short description of assay [20]: growth inhibition of PfATP4-mutant resistant parasites – NITD609-resistant line, SYBR Green, dry powder, dose response (AID 1159571).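 Also: parasites synchronized at ring stage by sorbitol before testing.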 It is filed as functional, cell-based.

Each structure is given as a SMILES string. Calls of active or inactive are those of the source.

Regarding `COc1cc2c(cc1O)[C@@H]1Cc3ccc(OC)c(O)c3CN1CC2` [SCOULERINE], the half-maximal inhibitory concentration (IC50) (usually the concentration needed to halve the response being measured) in assay [1] is 16.3 µM (active); in assay [2], > 128 µM (inactive).

As for `COc1cc2cc(Br)cc(Br)c2nc1C`, the 50% inhibitory concentration (IC50) on Major prion protein is 4.51 µM (active); in “cells”, > 138 µM (inactive).

For the compound `CCCSc1ccc2[nH]c(NC(=O)OC)nc2c1` [ALBENDAZOLE], the half-maximal inhibitory concentration (IC50) in [3] was 0.0656 µM (active); in [4] it was > 20 µM (inactive); in [5], 0.165 µM (active); in assay [6], 0.112 µM (active); in assay [7], > 20 µM (inactive); in assay [8], 0.502 µM (active). For the same compound, the IC50 in assay [9] was 0.0612 µM (active); in [10], > 20 µM (inactive); in assay [11], 0.108 µM (active); in [12], 0.158 µM (active).

Consider `Cc1nn(CCc2nnn[nH]2)c2nc(C(F)(F)F)cc(C(F)(F)F)c12`, for which, at Kallikrein-7, the EC50 (commonly the concentration at which the effect is half-maximal) was > 69.5 µM (inactive).

On to `CC1CCC(NC(=O)c2cc3c(s2)CCCC3)CC1` (stereo not given), for which the CC50 in assay [13] was > 40 µM (active). Besides, the IC50 on Major prion protein is 4.39 µM (active); in the assay “cells” it was > 138 µM (inactive).

Take `O=[N+]([O-])c1ccc2c([N+](=O)[O-])ccc3c2c1CC3`: the CC50 in assay [14] is > 40 µM (active).

Consider `COc1cccc(C#Cc2ccc([C@@H]3[C@@H](CO)N(C(=O)C4CCCCC4)[C@H]3C#N)cc2)c1`, for which the AC50 (in general, the midpoint of the concentration-response curve, whichever way the signal moves) was 2 µM (active) in [15]; 24.5 µM (active) in assay [16]; 2.6 µM (active) in assay [17]; 1.72 µM (active) in assay [18]; > 39 µM (inactive) in [19]; 2.06 µM (active) in assay [20].

The record behind these values is ChEMBL document CHEMBL1201862, “PubChem BioAssay data set” (2004).
